Assay in all cases: DTP human tumour cell line panel, 48 h
Test [1] deals with CCRF-CEM leukemia.
For test [2], the system named is HCC-2998 colon.
Test [3] relates to HL-60(TB) leukemia.
For test [4], the system named is M14 melanoma.
The subject of test [5] is U251 CNS.
The subject of test [6] is SN12C renal.
Test [7] has as its system UACC-62 melanoma.
In test [8] the test system is OVCAR-4 ovarian.
Test [9] relates to RPMI-8226 leukemia.
Test [10] deals with COLO 205 colon.

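Five compound concentrations were applied to cells in 96-well plates for 48 hours; endpoints were derived by simple linear interpolation of the resulting dose-response curve. Here, GI50 denotes the concentration required for 50% inhibition of growth. Definition used: TGI = concentration required for complete inhibition of growth.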

As a reminder, the TGI is the concentration giving total growth inhibition. Take `NC(=O)NC1=NCCC(=O)N1CCc1c[nH]c2ccccc12`: the TGI in [1] is 37.9 µM; in [2], 44.4 µM; in [3] it was 42.5 µM; in [4] it was 29.3 µM; in [5], over 100 µM; in test [6] it was 54.7 µM. The TGI is 36.9 µM in test [7], 52.9 µM in [8], 50.6 µM in test [9] and 27.9 µM in [10].

The GI50 is the concentration at which growth is held to half of that of the control. Take `NS(=O)(=O)OC[C@H]1O[C@@H](n2cnc3c(N[C@H]4CCc5ccccc54)ncnc32)[C@H](O)[C@@H]1O`: the GI50 in test [1] is 0.0419 µM; in test [2], 0.157 µM; in test [3], 0.0482 µM; in test [4], 0.226 µM; in test [5], 0.0353 µM; in [6] it was 0.231 µM. The GI50 in [7] was 0.0451 µM; in [8], 0.243 µM; in test [9], 3.36 µM; in test [10], 0.043 µM. In addition, the TGI in test [1] was over 100 µM; in test [2], 0.331 µM; in test [3], 1.44 µM; in test [4], 2.35 µM; in test [5] it was 0.121 µM; in test [6], 1.3 µM. Further, the TGI in test [7] worked out at 0.374 µM; in [8], 0.626 µM; in [9] it was 28.1 µM; in [10] it was 0.22 µM.

As for `Cc1cc(C)c(-c2noc(-c3ccc(Cl)cc3)c2C2=NCCN2)c(C)c1`, the TGI came out at 74.7 µM in test [1]; 36 µM in test [2]; 46.4 µM in [3]; 27 µM in test [4]; 34.3 µM in [5]; 45.5 µM in [6]. In addition, the concentration for total growth inhibition (TGI) in [7] is 33.8 µM; in test [8] it was over 100 µM; in test [9], 50.6 µM; in [10], 35.2 µM.

Consider `COC1=C(NC(C)=O)C(=O)c2nc3n(c2C1=O)CCC3`, for which the TGI in test [1] is 14.1 µM; in [2], 65.8 µM; in [3], over 30.4 µM; in test [4], 32.8 µM; in test [5], over 59.9 µM; in test [6], 32.3 µM. Besides, the total growth inhibition concentration (TGI) in [7] is 32.4 µM; in [8] it was 30.7 µM; in [9], over 79.2 µM; in test [10], 38.6 µM.

In the case of `COc1ccc(/C(C#N)=C/c2nc3c(N4CCOCC4)nc(Cl)nc3n2C)cc1OC`, the GI50 is under 0.01 µM in test [1]; 0.0163 µM in test [2]; under 0.01 µM in [3]; under 0.01 µM in test [4]; under 0.01 µM in [5]; under 0.01 µM in [6]. In addition, the GI50 in [7] was under 0.01 µM; in test [8], under 0.0105 µM; in test [9] it was under 0.01 µM; in [10], 0.0172 µM. The total growth inhibition concentration (TGI) in [1] is 0.146 µM; in test [2], 1.22 µM; in test [3], under 0.0112 µM; in test [5] it was 1.51 µM; in test [6] it was 1.48 µM; in test [7], 1.68 µM. The TGI in test [8] turned out to be 1.93 µM; in test [9] it was 0.315 µM; in [10] it was 0.0424 µM.

With `CC(CC(C)[C@H]1CCC2[C@H]3C(CC[C@@]21C)[C@@]1(C)CCC(O)C[C@H]1C[C@@H]3O)C(=O)O` (some centres undefined), the TGI in test [1], in test [2], in test [3], in [4], in [5] and in [6] was over 100 µM throughout. The TGI in test [7], in test [8], in [9] and in test [10] was over 100 µM each time.

Turning to `N#CC1=C(N)Oc2c(sc3c(F)cccc23)C1c1ccc(Cl)cc1` (centres undefined), the GI50 is 2.99 µM in test [1]; 7.25 µM in [2]; 2.69 µM in test [3]; 2.19 µM in test [4]; 3.13 µM in [5]; 4.33 µM in [6]. Moreover, the GI50 in test [7] is 3.26 µM; in test [8] it was 4.21 µM; in [9], 2.91 µM; in test [10], 2.31 µM. The TGI in [1] is 12.1 µM; in [2], 22.6 µM; in test [3], 8.3 µM; in test [4], 6.57 µM; in test [5] it was 11.6 µM; in test [6], 16.2 µM. Besides, the concentration for total growth inhibition (TGI) turned out to be 17.5 µM in test [7], 19.6 µM in test [8], 12.8 µM in test [9] and 6.15 µM in test [10].

`COc1cc(C2C3=C(COC3=O)N(CCO)c3cc4c(cc32)OCCO4)cc(OC)c1O` (centres undefined): the GI50 in test [1] was 1.84 µM; in test [2] it was 2.04 µM; in test [3] it was 1.52 µM; in test [4], 1.43 µM; in test [5], 2 µM; in test [6] it was 4.1 µM. Besides, the GI50 in test [7] was 0.961 µM; in [8], 3.78 µM; in [9] it was 2.18 µM; in [10], 1.67 µM. Moreover, the concentration for total growth inhibition (TGI) in [1] was over 50 µM; in [2], 19 µM; in test [3], over 13.5 µM; in test [4], over 21 µM; in test [5], over 50 µM; in test [6], over 50 µM. In addition, the TGI in [7] is over 50 µM; in test [8] it was over 50 µM; in [9], over 50 µM; in test [10], 12 µM.

As for `CC(C)n1c2c(c3ccccc3c1=O)C(=O)c1ccccc1-2`, the concentration for total growth inhibition (TGI) in test [1], in test [2], in test [3], in test [4], in test [5] and in test [6] was over 100 µM in each case. The TGI in [7], in [8], in test [9] and in test [10] was over 100 µM in each case.

For the compound `O=C(O)C(=O)/C=C\c1ccc(Cl)cc1`, the total growth inhibition concentration (TGI) in test [1], in test [2], in test [3], in [4], in [5] and in [6] was over 100 µM throughout. The TGI in test [7], in [8], in test [9] and in test [10] was over 100 µM in each case.

The record behind these values is PubChem BioAssay (NCI).
